IC50 and half-life data for 14 molecules are collected here from ChEMBL document CHEMBL4417631, “Oral peptide inhibitors of interleukin-23 receptor and their use to treat inflammatory bowel diseases” (2017).

The structures appear in SMILES notation. pIC50: −log10 of the molar value. *1 amine or outer side, *2 acyl side, *3 side chain or, on linkers, in order; H or OH if unused. Where a SMILES comes first, the peptide text is derived from it. Bridges are numbered along the chain shown (N, C = ends). [ ]: non-standard residue; d: D form. Abu(4-yl) = O=C([C@H](CC[*:3])N[*:1])[*:2]; 2Nal = N[C@@H](Cc1ccc2ccccc2c1)C(=O)O; αMeK = C[C@](N)(CCCCN)C(=O)O

Data set [1] deals with T1, Interleukin-23 receptor (Homo sapiens, UniProt Q5VWK5).
T1 sequence (Q5VWK5 whole entry): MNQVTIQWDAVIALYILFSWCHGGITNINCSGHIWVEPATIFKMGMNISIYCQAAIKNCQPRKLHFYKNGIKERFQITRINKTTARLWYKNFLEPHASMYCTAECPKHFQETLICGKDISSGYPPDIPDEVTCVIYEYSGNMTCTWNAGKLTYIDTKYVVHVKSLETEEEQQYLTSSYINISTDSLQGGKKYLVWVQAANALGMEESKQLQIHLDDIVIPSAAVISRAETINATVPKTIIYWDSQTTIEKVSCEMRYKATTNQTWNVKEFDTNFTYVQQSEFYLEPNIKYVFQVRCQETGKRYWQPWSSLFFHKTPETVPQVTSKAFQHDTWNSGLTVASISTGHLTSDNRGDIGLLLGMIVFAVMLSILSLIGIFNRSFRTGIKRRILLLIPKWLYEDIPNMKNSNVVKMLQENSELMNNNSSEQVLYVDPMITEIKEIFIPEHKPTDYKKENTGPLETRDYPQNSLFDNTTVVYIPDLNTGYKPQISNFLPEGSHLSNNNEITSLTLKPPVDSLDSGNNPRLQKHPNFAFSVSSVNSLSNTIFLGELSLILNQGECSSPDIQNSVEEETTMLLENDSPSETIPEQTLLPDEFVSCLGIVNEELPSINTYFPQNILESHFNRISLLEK
Put plainly: Inhibition of interleukin-23 receptor in human DB cells assessed as reduction in IL-23-stimulated STAT3 phosphorylation incubated for 30 mins by HTRF assay. Type of data set: cell-based.

The nature of data set [2]: Inhibition of interleukin-23 binding to rat interleukin-23 receptor incubated for 2 hrs by competitive binding ELISA. (An ELISA detects its analyte on a solid surface through an enzyme-linked reagent.)
Data set [3] can be described thus: Half life in simulated intestinal fluid at 20 uM by LC-MS/MS analysis. It is filed as ADME.
Data set [4] concerns the target T1, Interleukin-23 receptor. In words: Inhibition of interleukin-23 binding to human interleukin-23 receptor incubated for 2 hrs by competitive binding ELISA.
Data set [5] can be described thus: Half life in simulated gastric fluid at 20 uM by LC-MS/MS analysis. Type of data set: ADME.

The pIC50 is the IC50 on a negative log10 scale, so that one unit is a factor of ten. As usually defined, the half-life is how long it takes for the measured level to halve. A high value points to slow loss. With `CC(=O)N[C@H](C(=O)N[C@@H](CCC(N)=O)C(=O)N[C@H](C(=O)N[C@@H](Cc1c[nH]c2ccccc12)C(=O)N[C@@H](CCC(N)=O)C(=O)N[C@H](C(=O)N[C@@H](Cc1ccc(OCCN)cc1)C(=O)N[C@@H](Cc1ccc2ccccc2c1)C(=O)N[C@@](C)(CCCCN)C(=O)N[C@@H](CCC(=O)O)C(=O)N[C@@H](CC(N)=O)C(=O)N[C@@H](C)C(N)=O)C(C)(C)S)[C@@H](C)O)C(C)(C)S`, the pIC50 on Interleukin-23 receptor [1] is above 8.00; in data set [2] it was 7.00 to 7.60; on Interleukin-23 receptor [4], above 8.00. Besides, the half-life at 20 µM in data set [3] and in data set [5] was above 6 h in each case.

Regarding `CC(=O)NCCCC[C@H](NC(=O)[C@](C)(CCCCN)NC(=O)[C@H](Cc1ccc2ccccc2c1)NC(=O)[C@H](Cc1ccc(OCCN)cc1)NC(=O)[C@@H]1CSCC[C@H](NC(C)=O)C(=O)N[C@@H](CCC(N)=O)C(=O)N[C@@H]([C@@H](C)O)C(=O)N[C@@H](Cc2c[nH]c3ccccc23)C(=O)N[C@@H](CCC(N)=O)C(=O)N1)C(=O)N[C@@H](CC(N)=O)C(=O)NCC(N)=O`, the pIC50 (on Interleukin-23 receptor [1]; in data set [2]; at Interleukin-23 receptor [4]) was above 8.00 in each case. The half-life at 20 µM in data set [3] and in data set [5] was above 6 h in each case.

In the case of `COc1ccc(C[C@H](NC(=O)[C@@H](NC(=O)[C@H](CCC(N)=O)NC(=O)[C@H](Cc2c[nH]c3ccccc23)NC(=O)[C@@H](NC(=O)[C@H](CCC(N)=O)NC(=O)[C@@H](NC(=O)[C@@H]2CCC(=O)N2)C(C)(C)S)[C@@H](C)O)C(C)(C)S)C(=O)N[C@@H](Cc2ccc3ccccc3c2)C(=O)N[C@@](C)(CCCCN)C(=O)N[C@@H](CCCCNC(C)=O)C(=O)N[C@@H](CC(N)=O)C(=O)NCC(N)=O)cc1`, the pIC50 is above 8.00 at Interleukin-23 receptor [1], 7.00 to 7.60 in data set [2] and 7.00 to 7.60 at Interleukin-23 receptor [4]. Also, the values for the half-life at 20 µM in data set [3] and in data set [5] were above 6 h and 3 to 6 h, respectively.

In the case of `CC(=O)N[C@H]1CCSC[C@@H](C(=O)N[C@@H](Cc2ccc3ccccc3c2)C(=O)N[C@@H](Cc2ccc3ccccc3c2)C(=O)N[C@@](C)(CCCCN)C(=O)N[C@@H](CCC(=O)O)C(=O)N[C@@H](CC(N)=O)C(=O)NCC(N)=O)NC(=O)[C@H](CCC(N)=O)NC(=O)[C@H](Cc2c[nH]c3ccccc23)NC(=O)[C@H]([C@@H](C)O)NC(=O)[C@H](CCC(N)=O)NC1=O` (Ac-[Abu(4-yl)]QTWQC[2Nal][2Nal][αMeK]ENG-NH2; thioether 1-6), the pIC50 is 7.00 to 7.60 in data set [2] and 7.60 to 8.00 on Interleukin-23 receptor [4]. Also, the results for the half-life at 20 µM in data set [3] and in data set [5] were 3 to 6 h and below 1 h, respectively.

For `COc1ccc(C[C@H](NC(=O)[C@H]2NC(=O)[C@H](CCC(N)=O)NC(=O)[C@H](Cc3c[nH]c4ccccc34)NC(=O)[C@H]([C@@H](C)O)NC(=O)[C@H](CCC(N)=O)NC(=O)[C@@H](NC(C)=O)CCSC2(C)C)C(=O)N[C@@H](Cc2ccc3ccccc3c2)C(=O)N[C@@](C)(CCCCN)C(=O)N[C@@H](CCCCNC(C)=O)C(=O)N[C@@H](CC(N)=O)C(=O)NCC(N)=O)cc1`, the negative logarithm of the IC50 (pIC50) on Interleukin-23 receptor [1] was 7.00 to 7.60; in data set [2], 6.00 to 7.00; on Interleukin-23 receptor [4] it was 7.00 to 7.60. The half-life at 20 µM in data set [3] was 3 to 6 h; in data set [5], 2 to 3 h.

In the case of `COc1ccc(C[C@H](NC(=O)[C@@H]2CSCC[C@H](NC(C)=O)C(=O)N[C@@H](CCC(N)=O)C(=O)N[C@@H]([C@@H](C)O)C(=O)N[C@@H](Cc3c[nH]c4ccccc34)C(=O)N[C@@H](CCC(N)=O)C(=O)N2)C(=O)N[C@@H](Cc2c[nH]c3ccccc23)C(=O)N[C@@](C)(CCCCN)C(=O)N[C@@H](CCCCNC(C)=O)C(=O)N[C@@H](CC(N)=O)C(=O)NCC(N)=O)cc1`, the pIC50 (on Interleukin-23 receptor [1]; in data set [2]; on Interleukin-23 receptor [4]) was 7.60 to 8.00 each time. The half-life at 20 µM in data set [3] is above 6 h; in data set [5], below 1 h.

On to `CC(=O)N[C@H]1CCSC[C@@H](C(=O)N[C@@H](Cc2ccc(OCCN)cc2)C(=O)N[C@@H](Cc2ccc3ccccc3c2)C(=O)NC2(C(=O)N[C@@H](CCC(=O)O)C(=O)N[C@@H](CC(N)=O)C(=O)N[C@@H](CC(N)=O)C(N)=O)CCNCC2)NC(=O)[C@H](CCC(N)=O)NC(=O)[C@H](Cc2c[nH]c3ccccc23)NC(=O)[C@H]([C@@H](C)O)NC(=O)[C@H](CCC(N)=O)NC1=O`, for which the pIC50 (on Interleukin-23 receptor [1]; in data set [2]) was above 8.00 each time. Also, the half-life at 20 µM in data set [3] and in data set [5] was above 6 h in each case.

In the case of `CC(=O)NCCCC[C@](C)(NC(=O)[C@H](Cc1ccc2ccccc2c1)NC(=O)[C@H](Cc1ccc(OCCNC(C)=O)cc1)NC(=O)[C@@H](NC(=O)[C@H](CCC(N)=O)NC(=O)[C@H](Cc1c[nH]c2ccccc12)NC(=O)[C@@H](NC(=O)[C@H](CCC(N)=O)NC(=O)[C@@H](NC(C)=O)C(C)(C)S)[C@@H](C)O)C(C)(C)S)C(=O)N[C@@H](CCC(=O)O)C(=O)N[C@@H](CC(N)=O)C(=O)N[C@@H](C)C(N)=O`, the values for the pIC50 on Interleukin-23 receptor [1] and on Interleukin-23 receptor [4] were above 8.00 and 7.60 to 8.00, respectively. Also, the half-life at 20 µM in data set [3] and in data set [5] was above 6 h each time.

Consider `CC(=O)N[C@H]1CCSC[C@@H](C(=O)N[C@@H](Cc2ccc(OCCN)cc2)C(=O)N[C@@H](Cc2ccc3ccccc3c2)C(=O)N[C@@](C)(CCCCN)C(=O)N[C@@H](CCC(=O)O)C(=O)N[C@@H](CC(N)=O)C(=O)NCC(N)=O)NC(=O)[C@H](CCC(N)=O)NC(=O)[C@H](Cc2c[nH]c3ccccc23)NC(=O)[C@H]([C@@H](C)O)NC(=O)[C@H]([C@@H](C)O)NC1=O`, for which the pIC50 on Interleukin-23 receptor [1] and at Interleukin-23 receptor [4] was above 8.00 each time. In addition, the half-life at 20 µM in data set [3] and in data set [5] was 3 to 6 h throughout.

On to `CC(=O)NCCCC[C@H](NC(=O)C(C)(C)NC(=O)[C@H](Cc1ccc2ccccc2c1)NC(=O)[C@H](Cc1ccc(OCCN)cc1)NC(=O)[C@@H](NC(=O)[C@H](CCC(N)=O)NC(=O)[C@H](Cc1c[nH]c2ccccc12)NC(=O)[C@@H](NC(=O)[C@H](CCC(N)=O)NC(=O)[C@@H](NC(C)=O)C(C)(C)S)[C@@H](C)O)C(C)(C)S)C(=O)N[C@@H](CC(N)=O)C(=O)N[C@@H](CC(N)=O)C(N)=O`, for which the pIC50 on Interleukin-23 receptor [1] and at Interleukin-23 receptor [4] was above 8.00 in each case. The half-life at 20 µM in data set [3] was 2 to 3 h; in data set [5], 3 to 6 h.

For the molecule `CC(=O)NCCOc1ccc(C[C@H](NC(=O)[C@@H](NC(=O)[C@H](CCC(N)=O)NC(=O)[C@H](Cc2c[nH]c3ccccc23)NC(=O)[C@@H](NC(=O)[C@H](CCC(N)=O)NC(=O)[C@@H](NC(C)=O)C(C)(C)S)[C@@H](C)O)C(C)(C)S)C(=O)N[C@@H](Cc2ccc3ccccc3c2)C(=O)N[C@@](C)(CC(C)C)C(=O)N[C@@H](CCC(N)=O)C(=O)N[C@@H](CC(N)=O)C(=O)N[C@@H](CC(N)=O)C(N)=O)cc1`, the pIC50 at Interleukin-23 receptor [1] and on Interleukin-23 receptor [4] was above 8.00 throughout. Besides, the half-life at 20 µM in data set [3] and in data set [5] was above 6 h throughout.

As for `CC(=O)NCCCC[C@H](NC(=O)[C@](C)(CCCCNC(C)=O)NC(=O)[C@H](Cc1ccc2ccccc2c1)NC(=O)[C@H](Cc1ccc(OCCNC(C)=O)cc1)NC(=O)[C@@H](NC(=O)[C@H](CCC(N)=O)NC(=O)[C@H](Cc1c[nH]c2ccccc12)NC(=O)[C@@H](NC(=O)[C@H](CCC(N)=O)NC(=O)[C@@H](NC(C)=O)C(C)(C)S)[C@@H](C)O)C(C)(C)S)C(=O)N[C@@H](CC(N)=O)C(=O)N[C@@H](CC(N)=O)C(N)=O`, the pIC50 at Interleukin-23 receptor [1] and on Interleukin-23 receptor [4] was above 8.00 in each case. The half-life at 20 µM in data set [3] and in data set [5] was above 6 h each time.

In the case of `CC(=O)N[C@H]1CCSC[C@@H](C(=O)N[C@@H](Cc2ccc(OCCN)cc2)C(=O)N[C@@H](Cc2ccc3ccccc3c2)C(=O)NC2(C(=O)N[C@@H](CCC(=O)O)C(=O)N[C@@H](CC(N)=O)C(=O)N[C@@H](CC(N)=O)C(N)=O)CCCC2)NC(=O)[C@H](CCC(N)=O)NC(=O)[C@H](Cc2c[nH]c3ccccc23)NC(=O)[C@H]([C@@H](C)O)NC(=O)[C@H](CCC(N)=O)NC1=O`, the pIC50 (at Interleukin-23 receptor [1]; in data set [2]) was above 8.00 each time. Also, the half-life at 20 µM was 2 to 3 h in data set [3] and above 6 h in data set [5].

`CC(=O)NCCCC[C@H](NC(=O)C(C)(C)NC(=O)[C@H](Cc1ccc2ccccc2c1)NC(=O)[C@H](Cc1ccc(OCCN)cc1)NC(=O)[C@@H](NC(=O)[C@H](CCC(N)=O)NC(=O)[C@H](Cc1c[nH]c2ccccc12)NC(=O)[C@@H](NC(=O)[C@H](CCC(N)=O)NC(=O)[C@@H](NC(C)=O)C(C)(C)S)[C@@H](C)O)C(C)(C)S)C(=O)N[C@@H](CC(N)=O)C(=O)N[C@@H](CCC(N)=O)C(N)=O`: the pIC50 on Interleukin-23 receptor [1] and on Interleukin-23 receptor [4] was above 8.00 throughout. Also, the half-life at 20 µM in data set [3] and in data set [5] was above 6 h in each case.
